According to a melting point compilation (Tetko et al.; mined from patent text by program, amines drawn as free bases though some values may be those of a salt):

Work on Cc1ccc2c(C(C)C(N)=O)ccc(C(C)C)cc1-2 (stereo unspecified) yielded a melting point of 149 to 152 °C. For N#Cc1cncc(I)c1Cl, the melting point was 120 to 122 °C. CCCOC(=O)CCc1cc(Cl)ccc1C(=O)CCCNC(C)=O gave a melting point of 60 to 62 °C. Molecule CC(C)NCC(O)COc1ccccc1C1=NN(C)C(=O)CC1 (stereo unspecified) has a melting point of 82 to 84 °C. N#Cc1ccccc1C(F)(F)C(F)(F)c1ccc(F)cc1 gave a melting point of 90 to 93 °C. CN(C)C(=C[N+](=O)[O-])NCc1cnc(Cl)s1 gave a melting point of 101 to 102 °C. With OCC1(c2ccccc2)CCCCC1 the melting point was 63 to 64 °C. For CCOCC(COCC)Oc1ccc(/C=C/C(=O)OCC)c(Oc2ncc(C(F)(F)F)cc2Cl)c1, the melting point was 66 to 67.5 °C. Work on COCCOc1ccc(CN(C(=O)C2CCCc3c(O)cccc32)c2ccc(C(C)C)cc2)cn1 (stereo unspecified) yielded a melting point of 153 °C. With CC(=O)Nc1cc(NS(=O)(=O)CCl)c(Cl)cc1F the melting point was 210 °C. Cc1c(C)c2c(c(C)c1NCc1ccccc1)C(c1ccccc1)CO2 (stereo unspecified) gave a melting point of 107 to 108 °C. With Cc1nc(-c2ccccc2)nc(Cl)c1C the melting point was 120 to 122 °C. Work on C=C(C)N(c1c(C)cccc1C)S(C)(=O)=O yielded a melting point of 80 to 81 °C. In the case of O=C(CCCc1ccc(Cl)cc1)c1ccc(OCc2ccc3ccccc3n2)cc1, the melting point is reported as 140 to 142 °C. COc1cc(C(=O)NS(=O)(=O)c2ccccc2C)ccc1Cc1cn(C)c2ccc(C(=O)NC[C@H](C)CC(F)(F)F)cc12 gave a melting point of 142 to 144 °C. COc1nc(C2=NC(=O)C(C)(C(C)C)N2)c(C(=O)O)cc1C (stereo unspecified) gave a melting point of 151 to 153 °C. In the case of O=c1[nH][nH]c(=O)n1CCOc1ccccc1, the melting point is reported as 187 to 189 °C. For CC(C)c1cc(-c2ccc(F)cc2)nc(N(C)S(C)(=O)=O)n1, the melting point was 138 to 139 °C. Work on C=C(C)C=COc1ccc(C(=O)C=Cc2ccc(OCC(=O)O)c(OC)c2)c(OCC(=O)O)c1 yielded a melting point greater than 200 °C. With CN1CCC2(CC1)Nc1ccccc1S2 the melting point was 135 to 140 °C. Cc1cc(O)cc2oc(=O)ccc12 gave a melting point of 256 °C. Nc1cc(OCC(O)CO)ccc1[N+](=O)[O-] (stereo unspecified) showed a melting point of 139 °C. Work on O=C1c2ccccc2C(=O)N1CC1CCc2cccnc2O1 (stereo unspecified) yielded a melting point of 152 to 158 °C. CC(=O)OC1CCc2c(Nc3ccc(C#N)cc3)ncnc21 (stereo unspecified) showed a melting point of 215 to 217 °C. With CCc1cc(C(=O)c2ccccc2Cl)c(-n2c(C)nnc2CNC(=O)/C=C/c2ccccc2)s1 the melting point was 150 to 151 °C. CC1c2cccc3c2N(CC3)c2ccccc2N1CC#N (stereo unspecified) showed a melting point of 148 to 150 °C. CCc1nc2c(-c3c(C)cc(C)cc3C)ncnc2n1Cc1ccccc1 gave a melting point of 121 to 122 °C. For COc1cc(OC)c2c(=O)[nH]c(-c3ccc4[nH]c(CO)cc4c3)nc2c1, the melting point was 264 to 265 °C. In the case of COc1ccc(Cn2c(=S)[nH]c(=S)c3[nH]cnc32)cc1OC1CCCC1, the melting point is reported as 215 to 218 °C. Work on NC(=O)Cc1ccc2c(c1)C(=O)c1ccccc1CO2 yielded a melting point of 157 to 158 °C. CC(C)(C)N1CC2(CCNCC2)OC1=O showed a melting point of 108 to 111 °C. With COC(=O)C1=C(C)NC(C)=C(C(=O)OCCN2CCN(C(c3ccccc3)c3ccccc3)CC2)C1c1cccc(Cl)c1Cl (stereo unspecified) the melting point was 84 to 88 °C. For CC(C)(CO)c1ccc(C(=O)Nc2cn3cc(C(F)(F)F)ccc3n2)cc1, the melting point was 227 to 229 °C. With COc1cc(OC)c2c(=O)[nH]c(-c3ccc(OCCO)c(OC)c3)nc2c1 the melting point was 246 to 248 °C. Work on O=C1Cc2cc(-n3cccc3)ccc2C(=O)N1 yielded a melting point of 212 to 213 °C. Work on NCC1COc2cc(Cl)cc(-c3ccccc3Cl)c2N1 (stereo unspecified) yielded a melting point of 108 °C. Work on O=C1NC(=O)c2c1c(-c1ccccc1Cl)cc1oc3cc(OS(=O)(=O)C(F)(F)F)c(O)cc3c21 yielded a melting point of 237 to 240 °C. In the case of Cc1ccc2c(c1)C=Cc1cc(C)ccc1C2c1cn(Cc2nc(C(=O)Nc3nc(CC(=O)O)cs3)cs2)c(=O)[nH]c1=S, the melting point is reported as 200 to 205 °C. Molecule Cc1oc(Cl)cc1C(=O)O has a melting point of 126 to 127 °C. COC(=O)c1cc([N+](=O)[O-])c(N2CCSC2=N)c([N+](=O)[O-])c1 showed a melting point of 138 °C. OC1C(COCC(F)(F)F)OC(n2cnc3c(NC4CCOCC4)ncnc32)C1O (stereo unspecified) showed a melting point of 80 to 82 °C. Cc1cc(O)c(S(=O)(=O)CC2CCCCC2)c(=O)o1 gave a melting point of 104 to 106 °C. In the case of NS(=O)(=O)c1ccc(-n2nc(C(=O)O)cc2-c2ccccc2)cc1, the melting point is reported as 188 to 191 °C. Molecule CC(C)Cn1c(=O)c2nc(-c3ccc(/C=C/C(=O)O)cc3)[nH]c2n(CC(C)C)c1=O has a melting point greater than 300 °C. CC(=O)N(C)CCc1ccc(CCC(=O)O)cc1 showed a melting point of 133 to 134 °C. In the case of COc1cc2c(cc1Br)-c1c(-c3cccs3)c3c(n1CC2)C(=O)N(C(C)(C)C)CCC3, the melting point is reported as 232 to 233 °C. For Oc1ccc2c(c1)CCNC21CCSCC1, the melting point was 211 to 213 °C. For COC(=O)c1scc(Cl)c1O, the melting point was 78 °C. Molecule CCc1c(OC)cc(OC)c2c1C(=O)N(CSc1nnnn1-c1ccccc1)S2(=O)=O has a melting point of 162 to 164 °C. For Sc1c(Cl)ccc(Cl)c1S, the melting point was 57 to 58 °C. With COc1cccc(C=CC(=O)NC2CCNC(=O)C2)c1OC (stereo unspecified) the melting point was 164 to 166 °C.
